# Source: patent publication US7098372B1, “Pharmaceutical compositions and methods of using secreted frizzled related protein” (Wyeth, priority 1999, dated 2006)
# Columns and labels:
# Type in all cases: cell-based, human
# [1] = system: hOB-03-C5, hOB-03-CE6 and hOB-01-C1 cells; experiment: hOB cell viability in serum-free medium, Coulter cell counter; settings: 39° C.
# Experimental: For these experiments, the cells were treated with either control or PGE2 (panels A & B) or control and TGF-β1 (panel C) in serum-free medium at 39° C. for 3 or 6 days. The results are presented as the % relative to the day 0 control (i.e., […] cells per well of a 6 well plate). The results of this experiment indicate that hOB cell viability declines over time in serum-free medium. In addition, for the hOB-03-C5 and hOB-03-CE6 cells, this rate of decline is accelerated by treatment with PGE2. This enhanced rate of cell death correlates with the upregulation of hOB SFRP mRNA levels in these cells following PGE2 treatment. […]
# The next day, one set of plates were rinsed with PBS, trypsinized, and baseline cell number (and mean cell volume) was determined with a Coulter Multisizer as previously described in Bodine et al. 1996 J. Bone Miner. […] The other set of plates was placed at the non-permissive temperature of 39° C., and cell number was determined 6 days later (the medium was changed on day 3). […]
# The hypothesis that up-regulation of SFRP-1/FRP-1/SARP-2 gene expression accelerates hOB cell death, while down-regulation of SFRP-1/FRP-1/SARP-2 gene expression suppresses cell death, was next examined. […] Finally, treatment of the hOB-03-C5 cells with PGE2 increased annexin V (a specific marker for apoptosis) binding to the cell as measured by flow cytometry (FIG. 11).
# hOB SFRP gene fragment = experiment: RADE (differential-display PCR) of hOB cell lines treated with osteogenic agents; settings: 24 hr
# Text: It can also be seen that the hOB-01-C1 cells express high basal levels of this gene.
# The hOB SFRP gene fragment was identified using RADE (rapid analysis of differential expression) technology as described by Shiue 1997 Drug Develop. Res. 41: 142–159, the whole of which is incorporated herein. Three hOB cell lines (hOB-03-C5, hOB-03-CE6 and hOB-01-C1), representing three distinct stages of differentiation (proliferative, mature and preosteocytic, respectively) were used to isolate and identify SFRP. The hOB cell lines were established and cultured as previously described (Bodine et al. 1996 J. Bone Miner. Res. 11: 806–819; Bodine et al. 1996 Endocrinology 137: 4592–4604; Bodine et al. 1997 J. Cell. Biochem. 65: 368–387). […] However, in contrast to osteosarcoma cells (Stein and Lian 1993 Endocrine Rev. 14: 424–442), the hOB cell lines were faithful to the proliferation/differentiation relationship at the nonpermissive temperature (>37° C.) when the T-antigen mutant is inactivated. The cell lines were seeded into 150 mm dishes at ˜40,000 cells/cm^2 with growth medium [D-MEM/F-12 containing 10% (v/v) heat-inactivated fetal bovine serum (FBS), 1% (v/v) Penicillin-Streptomycin and 2 mM GlutaMAX-1] and incubated overnight at 34° C. […]
# hOB-01-C1-PS-09 cells = experiment: Hepatocyte growth factor (HGF) secretion by hOB-01-C1-PS-09 cells; settings: 39° C.
Compound,"increase in cell viability ([1]; hOB-01-C1 cells, 0.01–1.0 nM, dose-dependent)","regulation of hOB SFRP gene fragment (hOB SFRP gene fragment; pre-osteocytic hOB-01-C1 cell line, 0.1 nM)",HGF secretion (hOB-01-C1-PS-09 cells),"fewer cells remaining alive versus control ([1]; hOB-03-C5 and hOB-03-CE6 cells, 100 nM, 6 days)","regulation of hOB SFRP gene fragment (hOB SFRP gene fragment; hOB-03-C5 and hOB-03-CE6 cell lines, 100 nM)"
human transforming growth factor-β1 [TGF-β1],about 2 fold,down-regulated,dose-dependent decrease,–,–
"CCCCC[C@H](O)/C=C/[C@H]1[C@H](O)CC(=O)[C@@H]1C/C=C\CCCC(=O)O [PGE2, prostaglandin E2]",–,–,–,over 40%,strongly up-regulated
